Experimental data reported in US20070232647A1, “Use of Ppar Agonists to Treat Ruminants” (priority 2004, published 2007).

Experiments:
Holstein cows = test: Average daily milk yield over sixty days after calving; assay type: in vivo; conditions: approximately 0.5 mg/kg SC on day of calving and day five post-calving, increased from 41.8 (placebo), p=0.052, FIG. 6
Protocol: One hundred twenty four pregnant, non-lactating Holstein cows were allocated to two treatment groups (placebo and COMPOUND (at approximately 0.5 mg/kg). In this Example COMPOUND is (3S)-3-[3-(1-Carboxy-1-methyl-ethoxy)-phenyl]-piperidine-1-carboxylic acid, 4-trifluoromethyl-benzyl ester. Animals were allowed to calve, treated by subcutaneous injection on the day of calving and on day five post-calving. Disease events and daily milk production were recorded for the following sixty days. The average daily milk yield in the treated cows was increased from 41.8 to 43.2 kg/day (p=0.052). Results are shown in FIG. 6.

mid-lactation cows = test: Serum glucose levels, Example 1: PK/PD of two PPAR alpha agonists given IV and SC; assay type: in vivo; conditions: 0.5 mg/kg IV or SC, regardless of route of administration; blood samples up to 72 hours; FIG. 1
Protocol: Both compounds were administered by IV and SC routes, as outlined in the table below.
All animals were bled one day prior, and 15 minutes prior, to compound administration. Blood samples were collected from animals treated via IV at 5 and 10 minutes post compound administration. Blood samples were collected from all animals at 0.5, 1, 2, 4, 6, 24, 30, 48, 54, and 72 hours post compound administration. Samples were analyzed for glucose concentrations using a Dade Behring Dimension RXL serum chemistry analyzer. […] Other commercially available, standard apparatus for testing glucose levels can also be used.

| SMILES | average daily milk yield (Holstein cows) | glucose concentration relative to baseline values (mid-lactation cows) |
| --- | --- | --- |
| CC(C)(Oc1cccc([C@@H]2CCCN(C(=O)OCc3ccc(C(F)(F)F)cc3)C2)c1)C(=O)O [Compound A, (3S)-3-[3-(1-Carboxy-1-methyl-ethoxy)-phenyl]-piperidine-1-carboxylic acid 4-trifluoromethyl-benzyl ester] | 43.2 kg/day |  |
| Cc1ccc(-c2ccc(NS(=O)(=O)c3ccc(C)c(C(=O)O)c3)cc2)cc1 [Compound X, 2-Methyl-5-(4′-methyl-biphenyl-4-ylsulfamoyl)-benzoic acid] |  | increase in glucose |
